One block for each compound: values may come before it.
Columns and labels:
[1] = Dynamic vapor sorption/desorption (DVS) hygroscopicity; format: physicochemical
Description: The hygroscopicity of salts, solvates and polymorphs of the invention can be assessed by both static and dynamic hygroscopicity studies. For the latter, dynamic vapor sorption/desorption (DVS) experiments can be performed on an SGA-100 gravimetric sorption analyzer (or similar). The experimental protocol typically included full weight equilibrium at 0% RH.
The hygroscopicity of compound 298.HCl.H2O was assessed by both static and dynamic vapor sorption/desorption (DVS) experiments were performed at 25° C. according to Method 4M.

[2] = Static hygroscopicity study; format: physicochemical; settings: 3 months, 80% RH, 25° C.
Description: The static hygroscopicity study was performed by exposing compound 298.HCl.H2O for a period of 3 months to 80% RH humidity at 25° C. […] The sample was analyzed at 1-week, 1-month, 2-month and 3-month time points by the following methods: DSC, thermogravimetric analysis and Karl-Fischer titrimetry.

[3] = rat, in vivo, sc
Description: Formulations A, B-1, B-2 and B-3 were administered to male Sprague-Dawley rats subcutaneously (sc) at a dosing volume of 5 mL/kg.
Blood was collected via the JVC into tubes containing sodium EDTA (NaEDTA) and placed on ice until centrifugation. Samples were centrifuged at 13,000 rpm for 5 min with the temperature maintained at 4° C. Plasma was separated and stored frozen on dry ice prior to analysis.
The pharmacokinetic (PK) parameters for each animal were calculated using non-compartmental modeling (extravascular input model) and WinNonlin software (version 5.2, Pharsight). The half-life (t1/2), Area Under the Concentration Versus Time Curve from time 0 to the last quantifiable point (AUC0-t) and to infinity (AUC0-∞) were calculated and the observed Cmax and Tmax tabulated for each animal and dose group. […] The terminal elimination rate constant was calculated for the purpose of obtaining the extrapolated AUC0-∞ values.

[4] = Stability testing of compound 298.HCl.H2O at storage conditions; format: physicochemical
Source text: For determining the stability of an active pharmaceutical ingredient (API) or a pharmaceutical composition, the approach as outlined for regulatory purposes in International Conference on Harmonisation of Technical Requirements for Registration of Pharmaceuticals for Human Use (ICH) Q1A Guideline: Stability Testing of New Drug Substances and Products, February 2003, can be followed. In summary, this entails repetition of certain analytical tests on samples stored at three representative controlled conditions to ascertain whether or not any degradation or loss of potency has occurred. The typical conditions employed are: (1) 25° C.±2° C., 60%±5% relative humidity (RH); (2) 30° C.±2° C., 65%±5% RH; (3) 40° C.±2° C., 75%±5% RH (often termed accelerated stability). The photostability as outlined in International Conference on Harmonisation of Technical Requirements for Registration of Pharmaceuticals for Human Use (ICH) Q1B Guideline: Stability Testing: Photostability Testing of New Drug Substances and Products, November 1996, is typically also investigated.
The purpose of this procedure is to determine the purity of representative salts, solvates and polymorphs of the invention by reverse phase HPLC. Any appropriate detection method compatible with HPLC can be utilized, such as single or dual wavelength ultraviolet (UV) detection, evaporative light scattering detection (ELSD) or chemiluminescent nitrogen detection (CLND). For most cases, UV detection would be preferred. Purity can be determined by peak area %. The same assay conditions are used to determine the level of impurities and the potency. The parameters for this HPLC assay are delineated below.
Moisture level is determined by Karl Fischer titrimetry using the direct titration method, in accordance with USP <921 1a>.

POI = settings: unspecified formulation; cited from earlier work
diabetic gastroparesis = settings: unspecified formulation; cited from earlier work
[5] = humans, unspecified formulation; cited from earlier work
GH secretion = settings: animal models; cited from earlier work
[6] = Solubility of compound 298 salts, HPLC-CLND; settings: 20 mg compound 298 + 0.5 mL aqueous acid (1.1 eq), agitated 72 h
Description: The pH of the solution was then measured and the amount of dissolved salt determined by HPLC-CLND analysis.

[7] = Batch 1, 25° C., 60% RH, 12 mos
[8] = Batch 1, 25° C., 60% RH, 18 mos
[9] = Batch 1, 25° C., 60% RH, 24 mos
[10] = Example 3, 25° C., 60% RH, 0 mos
[11] = Example 3, 25° C., 60% RH, 3 mos
[12] = Example 3, 25° C., 60% RH, 6 mos
[13] = Example 3, 25° C., 60% RH, 9 mos
[14] = Example 3, 25° C., 60% RH, 12 mos
[15] = Example 3, 25° C., 60% RH, 18 mos
[16] = Example 3, 40° C., 75% RH, 0 mos
[17] = Example 3, 40° C., 75% RH, 1 mos
[18] = Example 3, 40° C., 75% RH, 3 mos
[19] = Example 3, 40° C., 75% RH, 6 mos

Hygroscopicity [1]: Non-hygroscopic
Hygroscopicity ([1]; DVS, 25° C.): essentially non-hygroscopic
Weight change ([1]; DVS, 25° C., 20%-90% relative humidity range): 1%
Weight loss (lattice water lost) ([1]; DVS, 25° C., equilibration at 0% RH): 2.6%
Deliquescence [2]: No deliquescence was detected
Hygroscopicity ([2]; static study): essentially non-hygroscopic
AUC0-∞ dependence on dose [3]: increased proportionally with dose
Increase in Cmax with dose [3]: less than dose-proportional
HPLC Assay (% Purity) ([4]; Batch 1, 5° C., 0 mos): 100.48%
Total Impurities (%) ([4]; Batch 1, 5° C., 0 mos): 0.41%
HPLC Assay (% Purity) ([4]; Batch 1, 5° C., 3 mos): 98.72%
Total Impurities (%) ([4]; Batch 1, 5° C., 3 mos): 0.39%
HPLC Assay (% Purity) ([4]; Batch 1, 5° C., 6 mos): 98.48%
Total Impurities (%) ([4]; Batch 1, 5° C., 6 mos): 0.42%
HPLC Assay (% Purity) ([4]; Batch 1, 5° C., 9 mos): 100.78%
Total Impurities (%) ([4]; Batch 1, 5° C., 9 mos): 0.47%
HPLC Assay (% Purity) ([4]; Batch 1, 5° C., 12 mos): 98.19%
Total Impurities (%) ([4]; Batch 1, 5° C., 12 mos): 0.42%
HPLC Assay (% Purity) ([4]; Batch 1, 5° C., 18 mos): 98.68%
Total Impurities (%) ([4]; Batch 1, 5° C., 18 mos): 0.43%
HPLC Assay (% Purity) ([4]; Batch 1, 5° C., 24 mos): 100.15%
Total Impurities (%) ([4]; Batch 1, 5° C., 24 mos): 0.43%
HPLC Assay (% Purity) ([4]; Batch 1, 25° C., 60% RH, 0 mos): 100.48%
Total Impurities (%) ([4]; Batch 1, 25° C., 60% RH, 0 mos): 0.41%
HPLC Assay (% Purity) ([4]; Batch 1, 25° C., 60% RH, 1 mos): 98.99%
Total Impurities (%) ([4]; Batch 1, 25° C., 60% RH, 1 mos): 0.40%
HPLC Assay (% Purity) ([4]; Batch 1, 25° C., 60% RH, 3 mos): 98.39%
Total Impurities (%) ([4]; Batch 1, 25° C., 60% RH, 3 mos): 0.40%
HPLC Assay (% Purity) ([4]; Batch 1, 25° C., 60% RH, 6 mos): 98.81%
Total Impurities (%) ([4]; Batch 1, 25° C., 60% RH, 6 mos): 0.42%
HPLC Assay (% Purity) ([4]; Batch 1, 25° C., 60% RH, 9 mos): 100.65%
Total Impurities (%) ([4]; Batch 1, 25° C., 60% RH, 9 mos): 0.46%
HPLC Assay (% Purity) [4, 7]: 97.59%
Total Impurities (%) [4, 7]: 0.49%
HPLC Assay (% Purity) [4, 8]: 99.81%
Total Impurities (%) [4, 8]: 0.21%
HPLC Assay (% Purity) [4, 9]: 100.24%
Total Impurities (%) [4, 9]: 0.48%
HPLC Assay (% Purity) ([4]; Batch 1, 40° C., 75% RH, 0 mos): 100.48%
Total Impurities (%) ([4]; Batch 1, 40° C., 75% RH, 0 mos): 0.41%
HPLC Assay (% Purity) ([4]; Batch 1, 40° C., 75% RH, 1 mos): 98.49%
Total Impurities (%) ([4]; Batch 1, 40° C., 75% RH, 1 mos): 0.39%
HPLC Assay (% Purity) ([4]; Batch 1, 40° C., 75% RH, 3 mos): 98.22%
Total Impurities (%) ([4]; Batch 1, 40° C., 75% RH, 3 mos): 0.40%
HPLC Assay (% Purity) ([4]; Batch 1, 40° C., 75% RH, 6 mos): 98.41%
Total Impurities (%) ([4]; Batch 1, 40° C., 75% RH, 6 mos): 0.44%
HPLC Assay (% Purity) [4, 10]: 99.9%
Potency Assay (HPLC wt %) [4, 10]: 89.1 wt %
Total Impurities (%) [4, 10]: 0.06%
Water Content (%) [4, 10]: 3.9%
HPLC Assay (% Purity) [4, 11]: 99.9%
Potency Assay (HPLC wt %) [4, 11]: 90.2 wt %
Total Impurities (%) [4, 11]: 0.12%
Water Content (%) [4, 11]: 4.2%
HPLC Assay (% Purity) [4, 12]: 99.9%
Potency Assay (HPLC wt %) [4, 12]: 90.1 wt %
Total Impurities (%) [4, 12]: 0.07%
Water Content (%) [4, 12]: 4.1%
HPLC Assay (% Purity) [4, 13]: 99.9%
Potency Assay (HPLC wt %) [4, 13]: 90.5 wt %
Total Impurities (%) [4, 13]: 0.06%
Water Content (%) [4, 13]: 4.3%
HPLC Assay (% Purity) [4, 14]: 99.9%
Potency Assay (HPLC wt %) [4, 14]: 89.9 wt %
Total Impurities (%) [4, 14]: 0.06%
Water Content (%) [4, 14]: 3.1%
HPLC Assay (% Purity) [4, 15]: 99.8%
Potency Assay (HPLC wt %) [4, 15]: 89.8 wt %
Total Impurities (%) [4, 15]: 0.07%
Water Content (%) [4, 15]: 4.0%
HPLC Assay (% Purity) [4, 16]: 99.9%
Potency Assay (HPLC wt %) [4, 16]: 89.1 wt %
Total Impurities (%) [4, 16]: 0.06%
Water Content (%) [4, 16]: 3.9%
HPLC Assay (% Purity) [4, 17]: 99.8%
Potency Assay (HPLC wt %) [4, 17]: 88.4 wt %
Total Impurities (%) [4, 17]: 0.18%
Water Content (%) [4, 17]: 3.5%
HPLC Assay (% Purity) [4, 18]: 99.9%
Potency Assay (HPLC wt %) [4, 18]: 92.1 wt %
Total Impurities (%) [4, 18]: 0.12%
Water Content (%) [4, 18]: 3.7%
HPLC Assay (% Purity) [4, 19]: 99.9%
Potency Assay (HPLC wt %) [4, 19]: 89.6 wt %
Total Impurities (%) [4, 19]: 0.07%
Water Content (%) [4, 19]: 4.2%
Appearance as a white powder ([4]; Example 3, over the 6 month period): remained unchanged
Compound: CC1CNC(C2CC2)C(=O)N(C)C(C)C(=O)NC(Cc2ccc(F)cc2)C(=O)NCCCc2ccccc2O1.Cl.O (stereo not drawn) [Compound 298•HCl•H2O]
XRPD analysis ([4]; Example 3, both storage conditions after 6 months): still consistent with the standard pattern

Compound: C[C@@H]1CN[C@@H](C2CC2)C(=O)N(C)[C@H](C)C(=O)N[C@H](Cc2ccc(F)cc2)C(=O)NCCCc2ccccc2O1 [compound 298]
Efficacy for the treatment of POI (POI): efficacy
Efficacy for the treatment of diabetic gastroparesis (diabetic gastroparesis): efficacy
Safety and pharmacokinetic properties [5]: appropriate safety and pharmacokinetic properties
Concurrent GH secretion (GH secretion): did not stimulate concurrent GH secretion

pH at 72 hr [6]: 3.6
Compound: Fumarate

Source: patent US20110245159A1, “Salts, Solvates and Pharmaceutical Compositions of Macrocyclic Ghrelin Receptor Agonists and Methods of Using the Same” (priority 2009, published 2011)
